Results reported in paper PMC5218480 (PLoS ONE, 2017).

Test system: MV-4-11 cells
Experiment: Gene expression microarray analysis (Affymetrix PrimeView) and GSEA
Format: cell-based, human
Parameters: RFU PODN (11730768_x_at) / Fold change /veh PODN (11730768_x_at) / RFU LINC00158 (11744669_a_at) / Fold change /veh LINC00158 (11744669_a_at) / RFU DUSP10 (11751237_a_at) / Fold change /veh DUSP10 (11751237_a_at) / RFU ID3 (11757404_x_at) / Fold change /veh ID3 (11757404_x_at) / RFU PLEKHG5 (11737974_s_at) / Fold change /veh PLEKHG5 (11737974_s_at) / RFU LRRC4B (11730491_at) / Fold change /veh LRRC4B (11730491_at) / RFU GIMAP4 (11747438_a_at) / Fold change /veh GIMAP4 (11747438_a_at) / RFU KRT8 (11758183_x_at) / Fold change /veh KRT8 (11758183_x_at) / RFU CNN1 (11734310_a_at) / Fold change /veh CNN1 (11734310_a_at) / RFU VPS37D (11726825_at) / Fold change /veh VPS37D (11726825_at) / RFU C10orf10 (11716522_x_at) / Fold change /veh C10orf10 (11716522_x_at) / RFU KIR2DL2 /// KIR2DL4 /// KIR2DL5A /// KIR2DL5B /// KIR2DS1 /// KIR2DS2 /// KIR2DS3 /// KIR2DS4 /// KIR3DL3 /// KIR3DL3 /// KIR3DS1 (11738374_at) / Fold change /veh KIR2DL2 /// KIR2DL4 /// KIR2DL5A /// KIR2DL5B /// KIR2DS1 /// KIR2DS2 /// KIR2DS3 /// KIR2DS4 /// KIR3DL3 /// KIR3DL3 /// KIR3DS1 (11738374_at) / RFU C1QL1 (11718748_at) / Fold change /veh C1QL1 (11718748_at) / RFU TMPRSS4 (11747572_a_at) / Fold change /veh TMPRSS4 (11747572_a_at) / RFU HAMP (11756126_x_at) / Fold change /veh HAMP (11756126_x_at) / RFU RNFT2 (11725882_a_at) / Fold change /veh RNFT2 (11725882_a_at) / RFU NR4A2 (11747474_a_at) / Fold change /veh NR4A2 (11747474_a_at) / RFU ABCC12 (11746883_a_at) / Fold change /veh ABCC12 (11746883_a_at) / RFU TMEM136 (11760407_x_at) / Fold change /veh TMEM136 (11760407_x_at) / RFU CLDN22 /// WWC2 (11732394_at) / Fold change /veh CLDN22 /// WWC2 (11732394_at) / RFU HLA-DPB1 (11760878_x_at) / Fold change /veh HLA-DPB1 (11760878_x_at) / RFU SPINT1 (11716480_a_at) / Fold change /veh SPINT1 (11716480_a_at) / RFU GAP43 (11754022_s_at) / Fold change /veh GAP43 (11754022_s_at) / RFU A4GNT (11735810_at) / Fold change /veh A4GNT (11735810_at) / RFU PRB3 (11715151_x_at) / Fold change /veh PRB3 (11715151_x_at) / RFU TUBB4B (11761932_at) / Fold change /veh TUBB4B (11761932_at) / RFU CAPN14 (11732068_a_at) / Fold change /veh CAPN14 (11732068_a_at) / RFU TMCC2 (11721928_a_at) / Fold change /veh TMCC2 (11721928_a_at) / RFU IRGQ (11745062_a_at) / Fold change /veh IRGQ (11745062_a_at) / RFU FAM174B (11720279_a_at) / Fold change /veh FAM174B (11720279_a_at) / RFU TMPRSS4 (11748680_a_at) / Fold change /veh TMPRSS4 (11748680_a_at) / RFU FAM212B (11763350_a_at) / Fold change /veh FAM212B (11763350_a_at) / RFU PLEKHG5 (11743358_a_at) / Fold change /veh PLEKHG5 (11743358_a_at) / RFU ZSCAN30 (11745921_a_at) / Fold change /veh ZSCAN30 (11745921_a_at) / RFU CMKLR1 (11741424_a_at) / Fold change /veh CMKLR1 (11741424_a_at) / RFU LOC101060620 /// MAPK8IP1 (11723275_at) / Fold change /veh LOC101060620 /// MAPK8IP1 (11723275_at) / RFU SPTSSB (11747773_x_at) / Fold change /veh SPTSSB (11747773_x_at) / RFU PRSS12 (11739890_at) / Fold change /veh PRSS12 (11739890_at) / RFU BIN1 (11741810_x_at) / Fold change /veh BIN1 (11741810_x_at) / RFU WNT11 (11732464_a_at) / Fold change /veh WNT11 (11732464_a_at) / RFU C10orf10 (11716521_a_at) / Fold change /veh C10orf10 (11716521_a_at) / RFU C5orf56 (11738089_at) / Fold change /veh C5orf56 (11738089_at) / RFU CYB561 (11721691_x_at) / Fold change /veh CYB561 (11721691_x_at) / RFU ANKRD19P (11752326_a_at) / Fold change /veh ANKRD19P (11752326_a_at) / RFU OR2T12 /// OR2T33 /// OR2T8 (11738714_s_at) / Fold change /veh OR2T12 /// OR2T33 /// OR2T8 (11738714_s_at) / RFU VCAN (11748164_a_at) / Fold change /veh VCAN (11748164_a_at) / RFU JSRP1 (11732532_at) / Fold change /veh JSRP1 (11732532_at) / RFU KRTAP10-11 (11738290_x_at) / Fold change /veh KRTAP10-11 (11738290_x_at) / RFU MYO3A (11730013_a_at) / Fold change /veh MYO3A (11730013_a_at) / RFU EBF3 (11725865_a_at) / Fold change /veh EBF3 (11725865_a_at) / RFU CAMK2N1 (11719241_x_at) / Fold change /veh CAMK2N1 (11719241_x_at) / RFU C5orf56 (11738088_a_at) / Fold change /veh C5orf56 (11738088_a_at) / RFU OLFML3 (11715873_a_at) / Fold change /veh OLFML3 (11715873_a_at) / RFU LOC100653217 /// NTM (11731650_a_at) / Fold change /veh LOC100653217 /// NTM (11731650_a_at) / RFU MAPK11 (11762145_a_at) / Fold change /veh MAPK11 (11762145_a_at) / RFU FIZ1 (11724087_x_at) / Fold change /veh FIZ1 (11724087_x_at) / RFU OASL (11726364_x_at) / Fold change /veh OASL (11726364_x_at) / RFU SOX15 (11748057_x_at) / Fold change /veh SOX15 (11748057_x_at) / RFU CD79A (11719716_a_at) / Fold change /veh CD79A (11719716_a_at) / RFU HIST1H1D (11736915_at) / Fold change /veh HIST1H1D (11736915_at) / RFU CASKIN2 (11723855_a_at) / Fold change /veh CASKIN2 (11723855_a_at) / RFU LOC730098 (11760151_x_at) / Fold change /veh LOC730098 (11760151_x_at) / RFU OR4N2 (11742367_at) / Fold change /veh OR4N2 (11742367_at) / RFU PRRT2 (11749266_a_at) / Fold change /veh PRRT2 (11749266_a_at) / RFU SNX32 (11753110_a_at) / Fold change /veh SNX32 (11753110_a_at) / RFU CDHR5 (11726645_a_at) / Fold change /veh CDHR5 (11726645_a_at) / RFU RCAN1 (11760418_a_at) / Fold change /veh RCAN1 (11760418_a_at) / RFU FAM167A (11723789_a_at) / Fold change /veh FAM167A (11723789_a_at) / RFU FAM26E (11764081_at) / Fold change /veh FAM26E (11764081_at) / RFU ISYNA1 (11749810_s_at) / Fold change /veh ISYNA1 (11749810_s_at) / RFU ACY1 (11761880_at) / Fold change /veh ACY1 (11761880_at) / RFU 11764098_at / Fold change /veh 11764098_at / RFU SAMD14 (11745864_x_at) / Fold change /veh SAMD14 (11745864_x_at) / RFU NPB (11741838_a_at) / Fold change /veh NPB (11741838_a_at) / RFU TMPRSS6 (11731388_a_at) / Fold change /veh TMPRSS6 (11731388_a_at) / RFU KRTAP10-2 (11738614_at) / Fold change /veh KRTAP10-2 (11738614_at) / RFU ARHGAP8 /// PRR5-ARHGAP8 (11727945_x_at) / Fold change /veh ARHGAP8 /// PRR5-ARHGAP8 (11727945_x_at) / RFU KRTAP5-7 /// NADSYN1 (11734609_at) / Fold change /veh KRTAP5-7 /// NADSYN1 (11734609_at) / RFU RASL12 (11751679_a_at) / Fold change /veh RASL12 (11751679_a_at) / RFU CDKN2B (11736163_a_at) / Fold change /veh CDKN2B (11736163_a_at) / RFU PRF1 (11729649_at) / Fold change /veh PRF1 (11729649_at) / RFU, ZNF638 /// ZNF638-IT1 / Fold change vs veh, ZNF638 /// ZNF638-IT1 / RFU, PANK3 / Fold change vs veh, PANK3 / RFU, SH3YL1 / Fold change vs veh, SH3YL1 / RFU, ZEB2 / Fold change vs veh, ZEB2 / RFU, NRIP1 / Fold change vs veh, NRIP1 / RFU, PTTG1IP / Fold change vs veh, PTTG1IP / RFU, CAPN2 / Fold change vs veh, CAPN2 / RFU, MED14 / Fold change vs veh, MED14 / RFU, SNORA58 / Fold change vs veh, SNORA58 / RFU, C1orf63 / Fold change vs veh, C1orf63 / RFU, LRRFIP1 / Fold change vs veh, LRRFIP1 / RFU, NDUFAF7 / Fold change vs veh, NDUFAF7 / RFU, SLC12A2 / Fold change vs veh, SLC12A2 / RFU, IBTK / Fold change vs veh, IBTK / RFU, ESF1 / Fold change vs veh, ESF1 / Fold change vs veh, TMEM50B / RFU, TAOK1 / Fold change vs veh, TAOK1 / RFU, ACBD3 / Fold change vs veh, ACBD3 / RFU, TMA16 / Fold change vs veh, TMA16 / RFU, RWDD3 / Fold change vs veh, RWDD3 / RFU, BCAT1 / Fold change vs veh, BCAT1 / RFU, EDEM3 / Fold change vs veh, EDEM3 / RFU, TMEM33 / Fold change vs veh, TMEM33 / RFU, WDR75 / Fold change vs veh, WDR75 / RFU, AHCTF1 / Fold change vs veh, AHCTF1 / RFU, TFRC / Fold change vs veh, TFRC / RFU, ZDHHC17 / Fold change vs veh, ZDHHC17 / RFU, NOM1 / Fold change vs veh, NOM1 / RFU, ARL8B / Fold change vs veh, ARL8B / RFU, ZBTB11 / Fold change vs veh, ZBTB11 / RFU, TAMM41 / Fold change vs veh, TAMM41 / RFU, KIAA1704 /// LOC100996395 / Fold change vs veh, KIAA1704 /// LOC100996395 / RFU, ING1 / Fold change vs veh, ING1 / RFU, TRMT61B / Fold change vs veh, TRMT61B / RFU, FUBP3 / Fold change vs veh, FUBP3 / RFU, TP53 / Fold change vs veh, TP53 / RFU, TNKS2 / Fold change vs veh, TNKS2 / RFU, ZFP14 / Fold change vs veh, ZFP14 / RFU, ACTR2 / Fold change vs veh, ACTR2 / RFU, PPP3R1 / Fold change vs veh, PPP3R1 / RFU, PIK3R1 / Fold change vs veh, PIK3R1 / RFU, HNRNPA1 / Fold change vs veh, HNRNPA1 / RFU, RNF170 / Fold change vs veh, RNF170 / RFU, ZNF28 / Fold change vs veh, ZNF28 / RFU, RNGTT / Fold change vs veh, RNGTT / RFU, OGT / Fold change vs veh, OGT / RFU, BRD1 / Fold change vs veh, BRD1 / RFU, MARS / Fold change vs veh, MARS / RFU, ZNF655 / Fold change vs veh, ZNF655 / RFU, FAHD1 / Fold change vs veh, FAHD1 / RFU, BDP1 / Fold change vs veh, BDP1 / RFU, LRRCC1 / Fold change vs veh, LRRCC1 / RFU, ARID1A / Fold change vs veh, ARID1A / RFU, ZNF146 / Fold change vs veh, ZNF146 / RFU, ZNF330 / Fold change vs veh, ZNF330 / RFU, GPN3 / Fold change vs veh, GPN3 / RFU, C9orf123 / Fold change vs veh, C9orf123 / RFU, N4BP2L2 / Fold change vs veh, N4BP2L2 / RFU, ARFIP1 / Fold change vs veh, ARFIP1 / RFU, FAM179B / Fold change vs veh, FAM179B / RFU, BCL10 / Fold change vs veh, BCL10 / RFU, UHRF1BP1L / Fold change vs veh, UHRF1BP1L / RFU, BET1 / Fold change vs veh, BET1 / RFU, CNOT2 / Fold change vs veh, CNOT2 / RFU, ZNF268 / Fold change vs veh, ZNF268 / Fold change vs veh, ZNF507 / RFU, DGCR2 / Fold change vs veh, DGCR2 / RFU, WDSUB1 / Fold change vs veh, WDSUB1 / Fold change vs veh, HSP90B1 /// MIR3652 / RFU, ADSS / Fold change vs veh, ADSS / RFU, GK / Fold change vs veh, GK / RFU, ZNF148 / Fold change vs veh, ZNF148 / RFU, TAF9 / Fold change vs veh, TAF9 / RFU, SLC1A5 / Fold change vs veh, SLC1A5 / RFU, SLMO2 / Fold change vs veh, SLMO2 / RFU, ABCC4 / Fold change vs veh, ABCC4 / RFU, LOC101060439 /// RAP1B / Fold change vs veh, LOC101060439 /// RAP1B / RFU, RFX7 / Fold change vs veh, RFX7 / RFU, GTPBP10 / Fold change vs veh, GTPBP10 / RFU, CNEP1R1 / Fold change vs veh, CNEP1R1 / RFU, BIVM-ERCC5 /// ERCC5 / Fold change vs veh, BIVM-ERCC5 /// ERCC5 / RFU, ILF3 / Fold change vs veh, ILF3 / RFU 11762660_at / Fold change /veh 11762660_at / RFU VCAN (11757783_s_at) / Fold change /veh VCAN (11757783_s_at) / RFU DDX43 (11728927_at) / Fold change /veh DDX43 (11728927_at) / RFU KRT8 (11758188_x_at) / Fold change /veh KRT8 (11758188_x_at) / RFU NKD1 (11759106_at) / Fold change /veh NKD1 (11759106_at) / RFU SRD5A1 (11742802_a_at) / Fold change /veh SRD5A1 (11742802_a_at) / RFU TPSAB1 /// TPSB2 (11721975_s_at) / Fold change /veh TPSAB1 /// TPSB2 (11721975_s_at) / RFU GSTM3 (11746129_a_at) / Fold change /veh GSTM3 (11746129_a_at) / RFU IL23R (11737362_x_at) / Fold change /veh IL23R (11737362_x_at) / RFU TMEM51 (11727254_a_at) / Fold change /veh TMEM51 (11727254_a_at) / RFU PIWIL2 (11732686_x_at) / Fold change /veh PIWIL2 (11732686_x_at) / RFU ORM1 (11744905_x_at) / Fold change /veh ORM1 (11744905_x_at) / RFU CCDC152 (11743942_at) / Fold change /veh CCDC152 (11743942_at) / RFU ECM1 (11717891_a_at) / Fold change /veh ECM1 (11717891_a_at) / RFU IL23R (11748794_a_at) / Fold change /veh IL23R (11748794_a_at) / RFU TNFAIP8L3 (11732012_x_at) / Fold change /veh TNFAIP8L3 (11732012_x_at) / RFU MBOAT4 (11741988_at) / Fold change /veh MBOAT4 (11741988_at) / RFU 11764193_at / Fold change /veh 11764193_at / RFU TMEM53 (11763286_at) / Fold change /veh TMEM53 (11763286_at) / RFU MAGEB2 (11727129_at) / Fold change /veh MAGEB2 (11727129_at) / RFU TMEM200A (11744735_a_at) / Fold change /veh TMEM200A (11744735_a_at) / RFU CCDC152 (11751479_a_at) / Fold change /veh CCDC152 (11751479_a_at) / RFU FAM211A (11726209_a_at) / Fold change /veh FAM211A (11726209_a_at) / RFU RGS16 (11746705_a_at) / Fold change /veh RGS16 (11746705_a_at) / RFU VCAN (11755009_s_at) / Fold change /veh VCAN (11755009_s_at) / RFU RHOB (11743442_s_at) / Fold change /veh RHOB (11743442_s_at) / RFU RGS16 (11720943_a_at) / Fold change /veh RGS16 (11720943_a_at) / RFU RGS16 (11720944_at) / Fold change /veh RGS16 (11720944_at) / RFU, VPS4B / Fold change vs veh, VPS4B / RFU, CREB1 / Fold change vs veh, CREB1 / RFU, DNAJC13 / Fold change vs veh, DNAJC13 / RFU, GNAQ / Fold change vs veh, GNAQ / RFU, CDK5R1 / Fold change vs veh, CDK5R1 / RFU, ZRANB3 / Fold change vs veh, ZRANB3 / RFU, CUL4A / Fold change vs veh, CUL4A / RFU, CCNY / Fold change vs veh, CCNY / RFU, UFL1 / Fold change vs veh, UFL1 / RFU, COG3 / Fold change vs veh, COG3 / RFU, DIAPH2 / Fold change vs veh, DIAPH2 / RFU, SKA2 / Fold change vs veh, SKA2 / RFU, AFF3 / Fold change vs veh, AFF3 / RFU, LMF1 / Fold change vs veh, LMF1 / RFU, IPO11 / Fold change vs veh, IPO11 / RFU, DFFB / Fold change vs veh, DFFB / RFU, FOXP1 / Fold change vs veh, FOXP1 / RFU, CARD8 / Fold change vs veh, CARD8 / RFU, STRN3 / Fold change vs veh, STRN3 / RFU, ADK / Fold change vs veh, ADK / RFU, RASSF2 / Fold change vs veh, RASSF2 / RFU, WIPF1 / Fold change vs veh, WIPF1 / RFU, LARP1B / Fold change vs veh, LARP1B / RFU, RASA1 / Fold change vs veh, RASA1 / RFU, RB1 / Fold change vs veh, RB1 / RFU, PPFIA1 / Fold change vs veh, PPFIA1 / RFU, MAT2A / Fold change vs veh, MAT2A / RFU, CCT5 / Fold change vs veh, CCT5 / RFU, WDR92 / Fold change vs veh, WDR92 / RFU, CUX1 / Fold change vs veh, CUX1 / RFU, TTC7A / Fold change vs veh, TTC7A / RFU, TMEM135 / Fold change vs veh, TMEM135 / RFU, DEPTOR / Fold change vs veh, DEPTOR / RFU, CPM / Fold change vs veh, CPM / RFU, DNAJB6 / Fold change vs veh, DNAJB6 / RFU, CACNA2D3 / Fold change vs veh, CACNA2D3 / RFU, DTX4 / Fold change vs veh, DTX4 / RFU, TFCP2 / Fold change vs veh, TFCP2 / RFU, GMCL1 /// GMCL1P1 / Fold change vs veh, GMCL1 /// GMCL1P1 / RFU, AEBP2 / Fold change vs veh, AEBP2 / RFU, SNHG1 /// SNORD22 /// SNORD25 /// SNORD26 /// SNORD27 /// SNORD28 /// SNORD29 /// SNORD31 / Fold change vs veh, SNHG1 /// SNORD22 /// SNORD25 /// SNORD26 /// SNORD27 /// SNORD28 /// SNORD29 /// SNORD31 / Fold change (Aza/veh), C12orf56 (ProbeSet 11735607_a_at) / Fold change (ACY-1035/veh), C12orf56 (ProbeSet 11735607_a_at) / Fold change (Aza/veh), FGFR1OP (ProbeSet 11751329_s_at) / Fold change (ACY-1035/veh), FGFR1OP (ProbeSet 11751329_s_at) / Fold change (Aza/veh), VPS36 (ProbeSet 11739960_a_at) / Fold change (ACY-1035/veh), VPS36 (ProbeSet 11739960_a_at) / RFU SYPL1 (11715823_x_at) / Fold change /veh SYPL1 (11715823_x_at) / RFU IGFBP7 (11715501_s_at) / Fold change /veh IGFBP7 (11715501_s_at) / RFU REEP3 (11722064_at) / Fold change /veh REEP3 (11722064_at) / RFU IGLL1 (11728026_x_at) / Fold change /veh IGLL1 (11728026_x_at): dose or concentration left out as unconfirmed
Conditions: ProbeSet 11728314_at; LIST B

## Nc1ncn([C@@H]2O[C@H](CO)[C@@H](O)[C@H]2O)c(=O)n1 [azacitidine]
  Fold change vs veh, ZNF148: 0.99
